Results taken from patent publication US5691373A, “Nonpeptide endothelin antagonists I” (Warner-Lambert Company, priority 1995, dated 1997).
Structures can show the parent of a compound that is named as a salt. Where two headings read alike, the source gives them in different places.

Key:
human ETB receptor = molecular target: T1, human ETB receptor (Homo sapiens, UniProt P24530); assay: ERBA-B: [125I]-ET-1 binding, recombinant human ETB receptor expressed in CHO-K1 cells; details: human cloned ETB receptor, read-out: ERBA-B IC50, human cloned receptor data
T1 construct: expressed in transfected cells; host or cells: CHO-K1 cells, pRc-CMW (so in the source) expression vector, electroporation; membranes used
T1 sequence (P24530 27-442): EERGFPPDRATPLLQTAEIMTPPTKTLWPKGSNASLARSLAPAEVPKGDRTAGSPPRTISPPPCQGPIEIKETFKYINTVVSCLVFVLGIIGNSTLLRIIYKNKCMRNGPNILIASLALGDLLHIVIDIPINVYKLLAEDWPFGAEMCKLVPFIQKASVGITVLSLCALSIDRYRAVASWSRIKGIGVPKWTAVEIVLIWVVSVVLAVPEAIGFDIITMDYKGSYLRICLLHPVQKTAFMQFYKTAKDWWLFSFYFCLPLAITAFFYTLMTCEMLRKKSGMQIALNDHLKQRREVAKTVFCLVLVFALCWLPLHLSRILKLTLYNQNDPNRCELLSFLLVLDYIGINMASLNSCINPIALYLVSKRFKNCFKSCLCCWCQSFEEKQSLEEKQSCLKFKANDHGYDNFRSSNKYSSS

ETA [1] = molecular target: T2, ETA (Oryctolagus cuniculus, UniProt A5A8K3); details: ERBA-A IC50, [125I]-ET-1, rabbit renal artery vascular smooth muscle cells
T2 sequence (A5A8K3 21-427): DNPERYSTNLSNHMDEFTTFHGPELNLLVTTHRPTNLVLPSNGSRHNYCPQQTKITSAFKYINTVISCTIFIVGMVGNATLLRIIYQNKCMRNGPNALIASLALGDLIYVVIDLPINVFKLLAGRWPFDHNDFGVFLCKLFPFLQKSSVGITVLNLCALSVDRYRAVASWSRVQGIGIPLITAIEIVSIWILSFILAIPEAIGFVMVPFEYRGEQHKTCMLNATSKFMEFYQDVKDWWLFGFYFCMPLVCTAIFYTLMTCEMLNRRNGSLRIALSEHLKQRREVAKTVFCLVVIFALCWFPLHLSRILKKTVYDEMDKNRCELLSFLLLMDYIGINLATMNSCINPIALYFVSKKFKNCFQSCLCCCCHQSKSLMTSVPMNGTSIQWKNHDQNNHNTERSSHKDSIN

ETA [2] = molecular target: T2, ETA
ETB = molecular target: T3, ETB (Rattus norvegicus, UniProt P21451)
T3 sequence (P21451 27-442): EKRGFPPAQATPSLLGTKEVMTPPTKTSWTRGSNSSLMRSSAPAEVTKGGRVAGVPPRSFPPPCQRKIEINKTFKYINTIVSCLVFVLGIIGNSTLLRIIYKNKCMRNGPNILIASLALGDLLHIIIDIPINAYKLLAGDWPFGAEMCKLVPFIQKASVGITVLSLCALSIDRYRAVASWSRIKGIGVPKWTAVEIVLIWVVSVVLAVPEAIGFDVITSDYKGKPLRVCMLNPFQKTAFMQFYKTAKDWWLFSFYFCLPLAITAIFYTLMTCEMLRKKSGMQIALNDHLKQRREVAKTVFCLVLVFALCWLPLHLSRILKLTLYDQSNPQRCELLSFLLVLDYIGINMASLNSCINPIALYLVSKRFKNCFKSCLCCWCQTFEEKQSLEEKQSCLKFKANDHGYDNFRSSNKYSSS

ETA [3] = molecular target: T2, ETA; assay: VERA-A: antagonism of ET-1 stimulated vasoconstriction in the rabbit femoral artery (ETA); assay type: cell-based; details: ET-1, rabbit femoral artery; read-out: VERA-A pA2 (converted)
Experimental: Male New Zealand rabbits were killed by cervical dislocation and exsanguination. Femoral and pulmonary arteries were isolated, cleaned of connective tissue, and cut into 4-mm rings. The endothelium was denuded by placing the rings over hypodermic tubing (32 gauge for femoral rings and 28 gauge for pulmonary rings, Small Parts, Inc, Miami, Fla.) and gently rolling them. […] Resting tension was adjusted to 3.0 g for femoral and 4.0 g pulmonary arteries; the rings were left for 90 minutes to equilibrate.

SMILES | IC50 (human ETB receptor) | IC50 (ETA [1]) | IC50 (ETA [2]) | IC50 (ETB) | Kb (ETA [3])
COc1ccc(C2(O)OC(=O)C(c3ccc4c(c3)OCO4)=C2Cc2cccc(C)c2)cc1 (stereo not shown) [Example 90, 3-Benzo[1,3]dioxol-5-yl-5-hydroxy-5-(4-methoxyphenyl)-4-(3-methylbenzyl)-5H -furan-2-one] | 3500 nM | 20 nM | 88 nM | – | –
C=CCOc1cc(CC2=C(c3cc(OC)cc(OC)c3)C(=O)OC2(O)c2ccc(OC)cc2)ccc1OC (stereo not shown) [Example 135, 4-(3-Allyloxy-4-methoxybenzyl)-3-(3,5-dimethoxyphenyl)-5-hydroxy-5-(4-methoxyphenyl)-5H-furan-2-one] | – | 9 nM | – | 330 nM | 126 nM
COc1ccc(C2(O)OC(=O)C(c3ccc4c(c3)OCO4)=C2Cc2cccnc2)cc1 (stereo not shown) [Example 160, 3-Benzo[1,3]dioxol-5-yl-5-hydroxy-5-(4-methoxyphenyl)-4-pyridin-3-ylmethyl-5H-furan-2-one] | – | 350 nM | 55 nM | – | –
COc1ccc(C2(O)OC(=O)C(c3ccc4c(c3)OCO4)=C2Cc2cc(OC)c(OC)c(OC)c2)cc1 (stereo not shown) [Example 281, 3-benzo[1,3]dioxol-5-yl-5-hydroxy-5-(4-methoxyphenyl)-4-(3,4,5-trimethoxybenzyl)-5H-furan-2-one] | – | 0.6 nM | 7700 nM | – | –
COc1ccc(C(=O)/C(Cc2ccccc2)=C(\C(=O)O)c2ccc3c(c2)OCO3)cc1 [Example 351, Sodium 2-benzo[1,3]dioxol-5-yl-3-benzyl-4-(4-methoxyphenyl)-4-oxobut-2-enoate] | > 250 nM | 16 nM | – | – | 631 nM
COc1ccc(C(=O)/C(Cc2ccc(OC(C)C)cc2)=C(\C(=O)O)c2ccc3c(c2)OCO3)cc1 [Example 352, 1,3-Benzodioxol-5-acetic acid, α-[2-(4-methoxyphenyl)-1-[[4-(1-methylethoxy)phenyl]methyl]-2-oxoethylene]-, (Z)-, choline salt] | 1250 nM | 5 nM | – | – | 63.1 nM
COc1ccc(C2(O)OC(=O)C(c3cc(OC)c4c(c3)OCO4)=C2Cc2cc(OC)c(OC)c(OC)c2)cc1 (stereo not shown) [Example 356, 5-Hydroxy-3-(7-methoxy-benzo[1,3]dioxol-5-yl)-5-(4-methoxy-phenyl)-4-(3,4,5-trimethoxy-benzyl)-5H-furan-2-one] | 340 nM | 0.25 nM | – | – | 20 nM
COc1ccc(C2(O)OC(=O)C(c3cc(OC)c4c(c3)OCO4)=C2Cc2ccccc2)cc1C (stereo not shown) [Example 360, 4-Benzyl-5-hydroxy-3-(7-methoxy-benzo[1,3]dioxol-5-yl)-5-(4-methoxy-3-methyl-phenyl)-5H-furan-2-one] | 1350 nM | 9.9 nM | – | – | 100 nM
COc1ccc(C2(O)OC(=O)C(c3cc(OC)c4c(c3)OCO4)=C2Cc2cc(OC)c(OC)c(OC)c2)cc1C (stereo not shown) [Example 361, 5-Hydroxy-3-(7-methoxy-benzo[1,3]dioxol-5-yl)-5-(4-methoxy-3-methyl-phenyl) -4-(3,4,5-trimethoxy-benzyl)-5H-furan-2-one] | 220 nM | 2 nM | – | – | 39.8 nM
COc1cc(OC)cc(C2=C(Cc3cc(OC)c(OC)c(OC)c3)C(O)(c3ccc(OC)c(C)c3)OC2=O)c1 (stereo not shown) [Example 382, 3-(3,5-Dimethoxy-phenyl)-5-hydroxy-5-(4-methoxy-3-methyl-phenyl)-4-(3,4,5-trimethoxy-benzyl)-5H-furan-2-one] | > 250 nM | 0.9 nM | – | – | 158 nM
COc1cc(OC)cc(/C(C(=O)O)=C(\Cc2ccc(NC(C)=O)cc2)C(=O)c2ccc(OC)c(C)c2)c1 [Example 386, Potassium 3-(4-Acetylamino-benzyl)-2-(3,5-dimethoxyphenyl)-4-(4-methoxy-3-methyl-phenyl)-4-oxo-but-2-enoate] | 2100 nM | 5 nM | – | – | 126 nM
COC(=O)c1cccc(C/C(C(=O)c2ccc(OC)cc2)=C(/C(=O)O)c2ccc3c(c2)OCO3)c1 [Example 405, 1,3-Benzodioxol-5-acetic acid, α-[1-[[3-(methoxycarbonyl)phenyl]methyl]-2-(4-methoxyphenyl)-2-oxoethylene]-, monopotassium salt] | 2700 nM | 7.4 nM | – | – | 251 nM
